Several values for one entry are separate records, joined by “and”; a condition that tells them apart may be missing. Identical values can stand only once. Like-named read-outs stand apart in the source and are kept apart here.
Key:
Type in all cases: cell-based, human
[1] = system: LFA-1; test: β2 integrin/ICAM-1 homotypic (cell:cell) binding of 8866 cells
Description: The following experiment describes the inhibition of homotypic (cell:cell) binding of β2 and ICAM-1 expressing cells by asperlin. 8866 cells, a human B-cell line, were supplied by Athena Neurosciences (San Francisco, Calif.). These cells constitutively express both the β2 integrin referred to as LFA-1, and ICAM-1 on the cell surface. In culture, 8866 cells spontaneously bind, or clump together, as a result of β2 integrin binding to ICAM-1.
8866 cells were maintained in RPMI 1640 culture media (refer to Example I) supplemented with […] HEPES buffer (Gibco No. 15630-080). Cells were subcultured when the cell density was approximately 1×10^6 cells/ml. […]
8866 cells were harvested by centrifuging 5 minutes, at 1000 rpm, room temperature, in a Sorvall RT6000 centrifuge. The cell pellet was resuspended in culture media and cells were counted using a hemacytometer. […]
Asperlin was solubilized in 100% DMSO at a concentration of 20 mg/ml, 10 mg/ml, 5 mg/ml, and 2.5 mg/ml. […] The progression of homotypic binding was monitored by microscopic observations after 1 and 2 hours of incubation.
Inhibition β2 integrin dependent homotypic binding to ICAM-1 by asperlin was photographically recorded using a Nikon 35 mm camera attached to a Nikon Diaphot 300 inverted microscope (filter setting NCBII, objective 10×, and light setting of photo).

[2] = system: U937 cells; test: MTT cytotoxicity assay, U937 cells; conditions: for Average Optical Density / Optical Density: U937, 30 min.; for Optical Density: single well, 580 nm
Description: (§1) This experiment describes the affect of asperlin on cellular respiration (mitochondrial activity) by measuring the reduction of the tetrazolium salt MTT to formazan crystals (Moseman, et al). This assay served as a control to ensure that the decrease in the fluorescence observed in Example I, Table I, was not the result of the fluorescent dye leaking from the cells due to disruption of the cell membrane. To address this issue, the mitochondrial activity of β2 and β1 integrin expressing cells in the presence of asperlin was quantitated using a commercially available MTT cytotoxicity kit (Promega No. G4100).
(§2) HL60 and U937 cells were purchased from the American Type Culture Collection (ATCC) and maintained in RPMI 1640 culture media containing 10% heat inactivated fetal bovine serum (refer to Example I, materials). HL60 cells were used between passages 20 and 30. HL60 cells were stimulated by a four day exposure to DMSO, as described in Example I, materials. Falcon round bottom tissue culture plates (No. 3077) were used for the experiment. All remaining reagents were supplied in Promega's MTT cytotoxicity kit (Catalog No. G4100).
(§3) The assay procedure described in the Promega MTT kit was used with the following changes.
(§4) Asperlin was solubilized in 100% DMSO at a concentration of 50 mg/ml. The 50 mg/ml asperlin stock was diluted to 400 μg/ml with culture media containing 5% fetal bovine serum (FBS). This solution was further diluted to 80 and 20 μg/ml with culture media supplemented with 5% FBS plus 2% DMSO. 50 μl of the 20 and 80 μg/ml asperlin solutions were added to wells of a sterile, round bottom 96 well assay plate. Control wells received 50 μl of culture media containing 5% FBS plus 2% DMSO. Duplicate assay wells were prepared such that U937 and HL60 cells could be evaluated on the same plate. The cell density of β1 integrin expressing U937, and β2 integrin expressing HL60 cell cultures were determined using a hemacytometer.
(§5) Cells were harvested by centrifuging for 5 minutes at 1000 rpm, room temperature, in a Sorvall RT600 bench-top centrifuge. The HL60 cell pellet was resuspended in fresh culture media at a concentration of 5×10^6 cells/ml. The U937 cell pellet was resuspended in fresh culture media at a concentration of 2.5×10^6 cells/ml. 2.5×10^5 β2 integrin expressing HL60 cells, contained in 50 μl, were added to wells of the assay plate using a multichannel pipettor. In duplicate assay wells, 1.25×10^5 β1 integrin expressing U937 cells, contained in 50 μl, were added to wells of the assay plate using a multichannel pipettor. Assay plates were incubated for either 30 minutes, 60 minutes, or 4 hours in a 37° C. 5% CO2, humidified incubator.
(§6) At the appropriate time point, 15 μl of MTT reagent, supplied in the Promega assay kit, was added to each well using a multichannel pipettor. Assay plates were incubated in the 37° C. incubator, as just described, for two hours. The MTT reduction reaction was quenched, and the visible formazan crystals were solubilized by adding exactly 100 μl of Promega's solubilization buffer to each well. Assay plates were incubated for at least 18 hours in the same 37° C. incubator just described to solubilize the formazan reagent. Assay plates were removed from the incubator and allowed to cool to room temperature. The optical density (OD) of each well of the assay plate was determined using a microtiter plate reader (Flow Labs) set at a wavelength of 580 nm with a correction wavelength of 630 nm.
(§7) Replicate sample ODs were average. The percentage of inhibition of cellular respiration (mitochondrial activity) by asperlin was quantitated by the following equation:
(§8) % Inhibition=(1-(Sample OD.div.Average Control OD))×100

[3] = MTT cytotoxicity assay, U937 cells; conditions: human, u937 cells, U937, 30 min., read-out: % Inhibition MTT Reduction
Description: as §1, §2, §3, §4, §5, §6, §7, §8

## CC(=O)OC1C=CC(=O)OC1C1OC1C [Asperlin, 6,7-Anhydro-2,3,8-trideoxy-D-galacto-oct-2-enoic acidδ-lactone 4-acetate]
[1]; after 1 hour of incubation
  Inhibition of 8866 cell homotypic binding, visual inspection (in words): inhibit cell--cell binding in a dose dependent manner
[1]; after 2 hours of incubation
  Inhibition of 8866 cell homotypic binding, visual inspection (in words): inhibited 8866, β2 integrin mediated homotypic binding to ICAM-1 in a dose dependent manner
[2]; Asperlin 10 μg/mL
  Average Optical Density: 1.532
  Optical Density: 1.410 and 1.601 and 1.584
[2]; Asperlin 40 μg/mL
  Average Optical Density: 1.386
  Optical Density: 1.362 and 1.352 and 1.391
[2]; β1 integrin expressing U937 cells
  Cytotoxicity (in words): not cytotoxic
[3]; Asperlin 10 μg/mL
  cytotoxicity at 0.5 h: 0%
[3]; Asperlin 40 μg/mL
  cytotoxicity at 0.5 h: 11%

Reference: patent US5912266A, “Beta2 integrin cell adhesion molecule inhibitors” (American Home Products Corporation, priority 1997, dated 1999)
